Measured values from US6566307B1, “α,α′-substituted n-alkyl-3-alkenylbenzoyl-pyrazol-derivatives” (BASF Aktiengesellschaft, priority 1999, dated 2003).

Assays:
Experiment in all cases: Greenhouse herbicidal activity, post-emergence method
Settings in all cases: scale 0 to 100 (100 = complete destruction, 0 = no damage)
[1] = system: SETVI; type: in vivo, green foxtail
Source text: (§1) The herbicidal activity of the compounds of the formula I was shown by greenhouse experiments: The culture containers used are plastic pots containing loamy sand with approximately 3.0% of humus as the substrate. The seeds of the test plants are sown separately for each species. For the post-emergence treatment, the test plants were first grown to a height of 3 to 15 cm, depending on the plant form, and only then treated with the active compounds which have been suspended or emulsified in water. The test plants were for this purpose either sown directly and grown in the same containers, or they were first grown separately as seedlings and transplanted into the test containers a few days prior to treatment. The application rate for the post-emergence treatment was 0.25, 0.125 or 0.0625 kg of active substance (a.s.)/ha. Depending on the species, the plants were kept at 10-25° C. or 20-35° C. The test period extended over 2 to 4 weeks. During this time, the plants are tended, and their response to the individual treatments was evaluated. The evaluation was carried out using a scale from 0 to 100. 100 means no emergence of the plants, or complete destruction of at least the aerial parts and 0 means no damage, or normal course of growth. The plants used in the greenhouse experiments were composed of the following species: [table]

[2] = system: POLPE; type: in vivo, ladysthumb
Source text: as §1

[3] = system: ECHCG; type: in vivo, barnyardgrass
Source text: as §1

[4] = system: CHEAL; type: in vivo, lambsquarter
Source text: as §1

[5] = system: SINAL; type: in vivo, white mustard
Source text: as §1

[6] = application rate 0.0625 kg of a.s./ha
[7] = application rate 0.125 kg of a.s./ha

Structure (SMILES): C=Cc1c(S(C)(=O)=O)ccc(C(=O)C2C=NN(C(C)C)C2O)c1OC (stereo not shown)
- Herbicidal activity when used by the post-emergence method in a greenhouse [1, 6]: 95
- Herbicidal activity when used by the post-emergence method in a greenhouse [1, 7]: 95
- Herbicidal activity when used by the post-emergence method in a greenhouse [2, 6]: 100
- Herbicidal activity when used by the post-emergence method in a greenhouse [2, 7]: 100
- Herbicidal activity when used by the post-emergence method in a greenhouse [3, 6]: 95
- Herbicidal activity when used by the post-emergence method in a greenhouse [3, 7]: 95
- Herbicidal activity when used by the post-emergence method in a greenhouse [4, 6]: 100
- Herbicidal activity when used by the post-emergence method in a greenhouse [4, 7]: 100
- Herbicidal activity when used by the post-emergence method in a greenhouse [5, 6]: 98
- Herbicidal activity when used by the post-emergence method in a greenhouse [5, 7]: 98
